Measurements from ChEMBL document CHEMBL4418302, “C-myc ligands capable of dimerizing in an aqueous solution, and methods of using same” (2016).
Activity calls are given as the source filed them. The rule behind the calls is not given here.

Columns and labels:
K562 [1] = assay: Antiproliferative activity against human K562 cells incubated for 3 days by Cell-Titer 96 aqueous one solution cell proliferation assay; format: functional, cell-based; details: K562, 72 h
[2] = biological target: Myc proto-oncogene protein (Homo sapiens, UniProt P01106); assay: Binding affinity to recombinant full-length DDK-tagged human c-Myc expressed in HEK293T cells assessed as inhibition of Max/c-Myc protein-protein interaction incubated for 1 hr by ELISA; format: cell-based
MV4-11 [3] = assay: Antiproliferative activity against human MV411 cells up to 30 uM incubated for 3 days by Cell-Titer 96 aqueous one solution cell proliferation assay; format: functional, cell-based
Daudi [4] = assay: Antiproliferative activity against human Daudi cells up to 30 uM incubated for 3 days by Cell-Titer 96 aqueous one solution cell proliferation assay; format: functional, cell-based
MV4-11 [5] = assay: Antiproliferative activity against human MV411 cells incubated for 3 days by Cell-Titer 96 aqueous one solution cell proliferation assay; format: functional, cell-based; details: MV4-11, 72 h
K562 [6] = assay: Antiproliferative activity against human K562 cells up to 30 uM incubated for 3 days by Cell-Titer 96 aqueous one solution cell proliferation assay; format: functional, cell-based
Daudi [7] = assay: Antiproliferative activity against human Daudi cells incubated for 3 days by Cell-Titer 96 aqueous one solution cell proliferation assay; format: functional, cell-based; details: 72 h

Sequence of Myc proto-oncogene protein (P01106 whole entry): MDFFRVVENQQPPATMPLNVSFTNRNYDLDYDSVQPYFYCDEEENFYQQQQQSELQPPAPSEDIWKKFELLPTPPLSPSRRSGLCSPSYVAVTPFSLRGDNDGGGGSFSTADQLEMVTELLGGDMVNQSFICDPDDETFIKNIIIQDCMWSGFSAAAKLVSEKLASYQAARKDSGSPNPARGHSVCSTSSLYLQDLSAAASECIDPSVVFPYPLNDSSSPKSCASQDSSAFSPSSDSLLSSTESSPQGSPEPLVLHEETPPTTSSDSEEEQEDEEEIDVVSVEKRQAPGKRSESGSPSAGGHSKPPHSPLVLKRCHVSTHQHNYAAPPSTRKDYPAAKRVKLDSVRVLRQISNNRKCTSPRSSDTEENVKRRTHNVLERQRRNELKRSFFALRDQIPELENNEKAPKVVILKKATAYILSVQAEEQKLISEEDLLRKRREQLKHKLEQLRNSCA

Row | Structure (SMILES) | IC50 (K562 [1]) | IC50 [2] | Activity (MV4-11 [3]) | Activity (Daudi [4]) | IC50 (MV4-11 [5]) | Activity (K562 [6]) | IC50 (Daudi [7])
1 | CCc1ccc(/C=C2\SC(=O)N(CCNC(=O)[C@H]3C[C@@H]4C[C@H]3[C@@H](O)[C@H]4O)C2=O)cc1 | > 30 µM | > 30 µM | inactive | inactive | > 30 µM | inactive | > 30 µM
2 | CCc1ccc(/C=C2\SC(=O)N(CC[C@H]3C[C@H]4C=C[C@@H]3C4)C2=O)cc1 (single isomer, unassigned) | – | > 30 µM | – | – | – | – | –
3 | CCc1ccc(/C=C2\SC(=O)N(CC[C@H]3C[C@@H]4C[C@H]3[C@@H](O)[C@H]4O)C2=O)cc1 | – | > 30 µM | – | – | – | – | –
4 | NC(=O)c1ccccc1Nc1ccc([N+](=O)[O-])c2nonc12 | – | > 30 µM | – | – | – | – | –
5 | O=C(NCc1ccc(B(O)O)cc1)c1ccc(Nc2ccc([N+](=O)[O-])c3nonc23)cc1 | – | – | inactive | inactive | – | inactive | –
6 | O=C(NCc1ccc(B(O)O)cc1)c1ccccc1Nc1ccc([N+](=O)[O-])c2nonc12 | > 30 µM | > 30 µM | inactive | inactive | > 30 µM | inactive | > 30 µM
7 | CCc1ccc(/C=C2\SC(=O)NC2=O)cc1 | – | > 30 µM | – | – | – | – | –
8 | CCc1ccc(/C=C2\SC(=O)N(CCNC(=O)[C@H]3C[C@H]4C=C[C@@H]3C4)C2=O)cc1 | – | > 30 µM | – | – | – | – | –
9 | O=C(NCc1cccc(B(O)O)c1)c1ccccc1Nc1ccc([N+](=O)[O-])c2nonc12 | > 30 µM | – | inactive | inactive | > 30 µM | inactive | > 30 µM
